Drawing on ChEMBL document CHEMBL5120971, “Network Pharmacology Research and Dual-omic Analyses Reveal the Molecular Mechanism of Natural Product Nodosin Inhibiting Muscle-Invasive Bladder Cancer in Vitro and in Vivo” (J Nat Prod, 2022), this text covers Activity and viability for one molecule.

Assay [1] has as its system T-24. The assay can be described thus: Induction of morphological changes in human T24 cells assessed as reduction in cell adherence at 4 to 12 uM measured after 48 hrs by microscopy. The format is functional, cell-based. Particulars: dose 4-12 µM.
The test system of assay [2] is T-24. The assay can be described thus: Induction of morphological changes in human T24 cells assessed as cell shrinkage at 4 to 12 uM measured after 48 hrs by microscopy. In kind it is functional, cell-based. Particulars: dose 4-12 µM.
For assay [3], the system named is T-24. The assay can be described thus: Antiproliferative activity against human T24 cells assessed as reduction in Ki67 expression at 4 to 12 uM measured after 24 hrs by DAPI staining based immunofluorescence analysis. The format is functional, cell-based. The settings on record: dose 4-12 µM.
Assay [4] has as its system T-24. The assay can be described thus: Effect on CDKN3 expression in human T24 cells at 6 uM measured after 24 to 30 hrs by proteomic analysis. In kind it is functional, cell-based. Particulars: time 24-30 hrs.
In assay [5] the test system is T-24. The experiment in a line: Effect on MDC1 expression in human T24 cells at 6 uM measured after 24 to 30 hrs by proteomic analysis. The format is functional, cell-based. Particulars: time 24-30 hrs.
Assay [6] deals with T-24. The assay can be described thus: Induction of apoptosis in human T24 cells assessed as necrotic cells at 4 uM measured after 48 hrs by Annexin V-FITC/propidium iodide staining based flow cytometry (reference value: 0.57%). The format is functional.
The test system of assay [7] is T-24. The experiment in a line: Induction of apoptosis in human T24 cells assessed as viable cells at 6 uM measured after 48 hrs by Annexin V-FITC/propidium iodide staining based flow cytometry (reference value: 97.49%). In kind it is functional. The settings on record: read-out: Activity.
In assay [8] the test system is T-24. The assay can be described thus: Induction of apoptosis in human T24 cells assessed as effect on G0S2 expression at 6 uM measured after 24 to 30 hrs by proteomic analysis. Particulars: time 24-30 hrs. The format is functional, cell-based.
Assay [9] concerns T-24. The assay can be described thus: Induction of apoptosis in human T24 cells assessed as effect on SQSTM1 expression at 6 uM measured after 24 to 30 hrs by proteomic analysis. The settings on record: time 24-30 hrs. The format is functional, cell-based.
Assay [10] has as its system T-24. The experiment in a line: Induction of apoptosis in human T24 cells assessed as effect on TRIAP1 expression at 6 uM measured after 24 to 30 hrs by proteomic analysis. The format is functional, cell-based. The settings on record: time 24-30 hrs.
The test system of assay [11] is T-24. The experiment in a line: Induction of autophagy in human T24 cells assessed as up regulation of SQSTM1 expression at 6 uM measured after 24 to 30 hrs by proteomic analysis. The format is functional, cell-based. Particulars: time 24-30 hrs.
In assay [12] the test system is T-24. The experiment in a line: Induction of autophagy in human T24 cells assessed as effect on SQSTM1 gene expression at 6 uM measured after 12 to 18 hrs by transcriptome analysis. The format is functional, cell-based. Particulars: time 12-18 hrs.
Assay [13] has as its system T-24. The experiment in a line: Induction of apoptosis in human T24 cells assessed as up regulation of HMOX1 gene expression at 6 uM measured after 12 to 18 hrs by transcriptome analysis. In kind it is functional, cell-based. The settings on record: time 12-18 hrs.
The subject of assay [14] is T-24. The experiment in a line: Induction of apoptosis in human T24 cells assessed as up regulation of LC3 expression at 6 to 12 uM measured after 24 hrs by immunofluorescence analysis. The format is functional, cell-based. The settings on record: dose 6-12 µM.
Assay [15] concerns T-24. The experiment in a line: Induction of cell membrane disruption in human T24 cells at 4 to 8 uM measured after 48 hrs by transmission electron microscopy. The format is cell-based. The settings on record: dose 4-8 µM.

Active and inactive are the calls of the source. The calls are words filed in the database; no cut-off is given here.

Consider `C=C1C(=O)[C@]23C[C@H]1C[C@@H](O)[C@H]2[C@@]12CO[C@@H](O)[C@@H]1C(C)(C)CC[C@@H]2OC3=O` [NODOSIN], for which the result in the assay on T-24 [1], with T-24 [2], with T-24 [3], in the assay on T-24 [4], in the assay with T-24 [5] and with T-24 [8] was Active. The outcome in the assay on T-24 [9], in the assay on T-24 [10], in the assay with T-24 [11], in the assay with T-24 [12], with T-24 [13] and with T-24 [14] was Active. For the same molecule, in the assay with T-24 [15], the outcome was Active. Moreover, the Activity in the assay on T-24 [6] is 0.2%. Also, the viability at 6 µM with T-24 [7] turned out to be 78.8%.
